Assay results as given in PubChem BioAssay (NCI).
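Following 48 hours of exposure in 96-well plates, responses at five concentrations were used to interpolate endpoints linearly. The concentration for full growth arrest is given as TGI.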

What was measured:
Experiment in all cases: growth of human tumour cells (NCI), 48 h
HOP-18 NSCLC = test system: HOP-18 NSCLC
DMS 114 small cell lung = test system: DMS 114 small cell lung
XF 498 CNS = test system: XF 498 CNS
DMS 273 small cell lung = test system: DMS 273 small cell lung
KM20L2 colon = test system: KM20L2 colon
MCF7 breast = test system: MCF7 breast
DU-145 prostate = test system: DU-145 prostate
PC-3 prostate = test system: PC-3 prostate
BT-549 breast = test system: BT-549 breast
MDA-MB-435 = test system: MDA-MB-435
MDA-MB-231 breast = test system: MDA-MB-231 breast
HS 578T breast = test system: HS 578T breast

Row | Structure (SMILES) | TGI (HOP-18 NSCLC) | TGI (DMS 114 small cell lung) | TGI (XF 498 CNS) | TGI (DMS 273 small cell lung) | TGI (KM20L2 colon) | TGI (MCF7 breast) | TGI (DU-145 prostate) | TGI (PC-3 prostate) | TGI (BT-549 breast) | TGI (MDA-MB-435) | TGI (MDA-MB-231 breast) | TGI (HS 578T breast)
1 | O=C(O)c1ccccc1[Se][Se]c1ccccc1C(=O)O | > 100 µM | > 100 µM | > 100 µM | > 100 µM | 68.5 µM | – | – | – | – | – | – | –
2 | O=C1C2C(C(=O)N1OS(=O)(=O)c1ccccc1)N(Cc1ccccc1)C(=O)N2Cc1ccccc1 (stereo not drawn) | – | > 100 µM | > 100 µM | – | > 100 µM | – | – | – | – | – | – | –
3 | CNS(=O)(=O)NNS(=O)(=O)c1ccc2ccccc2c1 | > 100 µM | > 100 µM | – | > 100 µM | > 100 µM | – | – | – | – | – | – | –
4 | CCOC(=O)CN1C(=O)c2cccc3cc([N+](=O)[O-])cc(c23)C1=O | 33.8 µM | 4.94 µM | 4.49 µM | – | 26.5 µM | – | – | – | – | – | – | –
5 | Cc1ccc(N=Nc2ccc(N(CCC#N)CCC#N)cc2C)c(Br)c1 | > 100 µM | > 100 µM | 40.6 µM | 41.4 µM | – | – | – | – | – | – | – | –
6 | O=C(COc1ccc(Br)cc1Br)N1N=C(c2ccc([N+](=O)[O-])o2)CC1(O)c1ccccc1 (stereo not drawn) | 41 µM | 23.5 µM | – | 32.5 µM | 58.8 µM | – | – | – | – | – | – | –
7 | CC(=O)NNc1nc(C)c(C(=O)NNC(=O)C(=O)Nc2c(Cl)cc([N+](=O)[O-])cc2Cl)s1 | – | 94.9 µM | – | > 100 µM | > 100 µM | – | – | – | – | – | – | –
8 | CC(=O)NNc1nc(C)c(C(=O)NNC(=O)C(=O)Nc2ccc(Cl)cc2)s1 | – | – | > 100 µM | – | > 100 µM | – | – | – | – | – | – | –
9 | C/C(CC(=O)CCC(=O)Nc1cccc(C(F)(F)F)c1)=N\NC(=O)NN | > 100 µM | > 100 µM | > 100 µM | > 100 µM | > 100 µM | – | – | – | – | – | – | –
10 | O=CN/C=C/c1cc(O)ccc1O | > 56.8 µM | 31.8 µM | 34.1 µM | > 100 µM | > 80.3 µM | 30.2 µM | > 100 µM | > 100 µM | – | – | – | –
11 | CN(C)CC[N+]1=Nc2cccc3cccc(c23)N1 | > 100 µM | > 100 µM | > 100 µM | 35.6 µM | > 100 µM | – | – | – | – | – | – | –
12 | CC1(c2ccc(F)cc2)C(C#N)C(=O)NC(=O)C1C#N (stereo not drawn) | – | > 100 µM | > 100 µM | > 100 µM | > 100 µM | – | – | – | – | – | – | –
13 | COC(=O)CC1CCN(C#N)CC1CC[N+](=O)[O-] (stereo not drawn) | > 100 µM | > 100 µM | – | > 100 µM | > 100 µM | – | – | – | – | – | – | –
14 | COc1ccccc1C12OC(=O)C1(C)Oc1ccccc1C2=O (stereo not drawn) | – | > 100 µM | > 100 µM | 86.4 µM | > 100 µM | – | – | – | – | – | – | –
15 | O=C(N/C(=C\c1ccc(/C=C(\NC(=O)c2ccccc2)c2nc3cc([N+](=O)[O-])ccc3[nH]2)cc1)c1nc2cc([N+](=O)[O-])ccc2[nH]1)c1ccccc1 | > 100 µM | > 100 µM | – | > 100 µM | > 100 µM | – | – | – | – | – | – | –
16 | COC1(OC)CCC2C1C1CCC(OC)(OC)C21 (stereo not drawn) | > 50 µM | > 50 µM | > 50 µM | > 50 µM | > 50 µM | – | – | – | – | – | – | –
17 | Cn1cnc([N+](=O)[O-])c1Sc1nnc(-c2cccnc2)n1C | 35.6 µM | > 49.2 µM | 44.8 µM | > 100 µM | > 100 µM | 46.8 µM | > 80.7 µM | > 57.9 µM | 36.5 µM | 30.2 µM | 39.4 µM | > 89.4 µM
18 | O=C(/C=C/c1ccccc1)NC1C=Nc2ccc(Cl)cc2NC1=O (stereo not drawn) | > 100 µM | 30.4 µM | 50.1 µM | 54.6 µM | 62.9 µM | – | – | – | – | – | – | –
19 | CCCCC(=O)OCC(=O)[C@]1(O)Cc2c(O)c3c(c(O)c2[C@@H](OC2CC(NC(=O)C(F)(F)F)C(O)C(C)O2)C1)C(=O)c1c(OC)cccc1C3=O (stereo partly drawn) | – | 1.66 µM | 0.97 µM | 3.39 µM | > 100 µM | – | 2.44 µM | 16.9 µM | 9.7 µM | > 100 µM | > 100 µM | 5.05 µM
20 | O=C1C(=O)N(c2ccc(Cl)cc2Cl)C(=O)C(=O)C1c1nc2ccccc2s1 | > 100 µM | > 100 µM | 98.1 µM | > 100 µM | > 100 µM | – | – | – | – | – | – | –
21 | CN1C(=O)C(C)(C)C2(SC(C)(C)C2(C)C)N(C)C1=S (stereo not drawn) | > 100 µM | > 100 µM | – | > 100 µM | – | – | – | – | – | – | – | –
22 | Clc1cc2nsnc2c(Cl)n1 | 31.7 µM | 33.5 µM | 31.2 µM | > 100 µM | > 100 µM | – | – | – | – | – | – | –
23 | N#CC(c1ccc(Cl)cc1)c1cccc(C(C#N)c2ccc(Cl)cc2)n1 (stereo not drawn) | – | – | 26.2 µM | – | > 100 µM | – | – | – | – | – | – | –
24 | COC1CCC2C(NS(=O)(=O)c3ccc(C)cc3)CCCC2O1 (stereo not drawn) (tested in a mixture with another compound) | – | 27.9 µM | – | 22.8 µM | > 34.5 µM | – | – | – | – | – | – | –
25 | CCOc1ccc(NC(=O)C(=O)CC(=O)c2c[n+](=O)c3cc(C)c(C)cc3n2[O-])cc1 | > 100 µM | > 100 µM | > 100 µM | > 100 µM | > 100 µM | – | – | – | – | – | – | –
